Test results: patent US11510890B2, “Meroterpenoid compounds for use in the prevention and treatment of a neurological disorder” (SOCIETE DES PRODUITS NESTLE S.A., priority 2017, dated 2022)
Read-outs that look alike come from different tables or passages of the source.

How the values were obtained:
[1] = tested on: Human astrocytoma cell line CCF-STTG1; assay: Lactate release screening assay (fluorescent enzymatic assay); assay type: cell-based; settings: for Primary screen %: CCF-STTG1, supernatants after 2 hours
Method: Human astrocytoma cell line CCF-STTG1 was cultured at 37° C. in a humidified atmosphere (5% CO2) in RPMI-1640 medium supplemented with 10% (v/v) heat-inactivated fetal calf serum, 50 μg/ml penicillin and 100 μg/ml streptomycin.
CCF-STTG1 were seeded in 384-well plates. Two days later, the cells were washed 3 times and incubated 30 min in Krebs-Ringer bicarbonate HEPES (KRBH) buffer containing (in mM): 140 NaCl, 3.6 KCl, 0.5 NaH2PO4, 0.5 MgSO4, 1.5 CaCl2, 10 HEPES, 5 NaHCO3 (pH7.4) supplemented with 2.5 mM glucose. Then, the cells were maintained in the buffer in the presence of tested compounds. Supernatants were collected after 2 hours and were assessed for lactate concentration. Lactate concentration in the supernatants were determined by fluorescent enzymatic assay. Samples were diluted in assay reagent containing (in mM or U/ml)): 100 sodium phosphate (pH7.5), 0.1 EDTA, 0.05 Amplex UltraRed, 0.1 Lactate oxidase, 1.5 Horseradish Peroxidase.
Fluorescence emission was measured at 600 nm after an excitation at 500 nm using Bioteck Synergie Neo multimode reader after 30 min at room temperature protected from direct light.

[2] = tested on: human iPSc derived into cardiomyocyte (iCell Cardiomyocytes); assay: Toxicity - ATP content (CellTiter-Glo); assay type: cell-based
Method: (§1) Differentiated human iPSCs (iCell astrocytes, and iCell cardiomyocytes) were obtained from Cellular Dynamics International (CDI, Madison, Wis., USA). iCell astrocytes were cultured in DMEM supplemented with 10% fetal calf serum and N2 complement. iCell cardiomyocytes were maintained in a medium supplied by CDI. Cell cultures were kept in a humidified atmosphere (5% CO2) at 37° C.
iCell Cardiomyocytes were seeded in 384-well plates. Eight days later cells were treated for 24 hours with compounds. Cell viability was determined by the quantification of intracellular ATP after cell lysis. ATP was used as an indicator of metabolically active cells. ATP was measured using a luminescent cell viability assay (CellTiter-Glo®; […]). Luminescence was measured after 20 min in a Bioteck Synergie Neo multimode reader.
Toxicity of the meroterpenoid compounds were evaluated in human IPS cell derived cardiomyocytes by measuring total ATP in cell lysates.
Dose response of compounds on human iPSc derived into cardiomyocyte with evaluation of the ATP level using cell titer glow. Results were normalized between untreated cells (100%) and positive control (0%).
(§2) The toxicity expressed in log IC50 (ATP content after 24 hours compound treatment on human iPSc derived into cardiomyocyte) was compared against the lactate release in log EC50 (lactate secretion after 2 hours compound treatment in human iPSc derived into astrocytes).

CCF-STTG1 = assay: Lactate release orthogonal assay (spectrophotometric enzymatic assay); assay type: cell-based, human; settings: CCF-STTG1, supernatants after 2 hours, colorimetric kit
Method: CCF-STTG1 were seeded in 384-well plates. Two days later, the cells were washed 3 times and incubated 30 min in Krebs-Ringer bicarbonate HEPES (KRBH) buffer containing (in mM): 140 NaCl, 3.6 KCl, 0.5 NaH2PO4, 0.5 MgSO4, 1.5 CaCl2, 10 HEPES, 5 NaHCO3 (pH7.4) supplemented with 2.5 mM glucose. The cells were maintained in the buffer in the presence of tested compounds. Supernatants were collected after 2 hours and assessed for lactate concentration. Lactate concentration in the supernatant was determined by a spectrophotometric enzymatic assay (lactate colorimetric assay kit II no. K627; BioVision, Milpitas, Calif. USA). In this kit, lactate is oxidized by lactate dehydrogenase to generate a product which interacts with a probe to produce a color (λmax=450 nm).
Absorbance was measure after 30 min at 450 nm using Bioteck Synergie Neo multimode reader. Background absorbance obtained in the absence of kit was subtracted from each value.
The stimulation of lactate secretion after treatment with meroterpenoid compounds was confirmed in an orthogonal assay based on another enzyme to measure lactate. The results of the lactate release measurement during the drug discovery screen for each compound and the results of lactate release measure with the orthogonal assay were correlated.

[3] = tested on: human iPSc derived into astrocyte (iCell astrocytes); assay: Lactate release dose response in human iPSc derived astrocytes; assay type: cell-based
Method: Dose response curves were established for compounds identified in the screen to stimulate lactate secretion. The EC50 values for the stimulation of lactate secretion were determined using primary human IPS cell derived astrocytes.
as §1
Dose response of compounds on lactate release from human iPSc derived into astrocyte fitted with a log (agonist) vs. response variable slope to extract […] (EC50). Mean±SEM in duplicate.
as §2

[4] = ATP content after 24 hours compound treatment, read-out: Cardiomyocytes Toxicity IC50
[5] = log of IC50 in M, given negative, ATP content after 24 hours
[6] = lactate secretion after 2 hours compound treatment, read-out: Astrocytes Lactate release EC50
[7] = log of EC50 in M, given negative, 2 hours compound treatment

Row | EC50 [3, 6] [µM] | Compound | Primary screen % [1] [%] | Reconfirmation % [1] [%] | IC50 [2, 4] [µM] | Cardiomyocytes Toxicity log IC50 [2, 5] | Orthogonal assay % (CCF-STTG1) [%] | Astrocytes Lactate release logEC50 [3, 7] | IC50 ([2]; Homo sapiens, iPSC, ATP content after 24 hours compound treatment, read-out: Cardiomyocytes Toxicity IC50) [µM] | IC50 ([2]; Homo sapiens, iPSC, log of IC50 in M, given negative, ATP content after 24 hours, read-out: Cardiomyocytes Toxicity log IC50 (converted)) [µM] | EC50 ([3]; Homo sapiens, iPSC, lactate secretion after 2 hours compound treatment, read-out: Astrocytes Lactate release EC50) [µM] | EC50 ([3]; Homo sapiens, iPSC, log of EC50 in M, given negative, 2 hours compound treatment, read-out: Astrocytes Lactate release logEC50 (converted)) [µM]
1 | 0.15 | C/C(=C\Cc1c(O)c(Cl)c(C)c(C=O)c1O)CC[C@@]1(C)[C@H](C)CCC(=O)[C@@H]1C [22562-67-0, Ilicicolin C] | 70 | 74 | 71 | −4.2 | 84 | −6.8 |  |  |  | 
2 | 2.6 | C/C(=C\Cc1c(O)cc(C)c(C=O)c1O)CC[C@@]1(C)[C@H](C)CCC(=O)[C@@H]1C [22562-68-1, Antibiotic LL-Z 1272ε] | 72 | 83 | 81 | −4.1 | 68 | −5.6 |  |  |  | 
3 | 0.014 | CC(/C=C/C1(C)C(C)C=CC(=O)C1C)=C\Cc1c(O)c(Cl)c(C)c(C=O)c1O (stereo not drawn) [22581-11-9] | 68 | 50 | 3.2 | −5.5 | 61 | −7.9 |  |  |  | 
4 |  | CC(/C=C/[C@@]1(C)[C@H](C)CCC(=O)[C@@H]1C)=C\Cc1c(O)c(Cl)c(C)c(C=O)c1O [26166-39-2, Ascochlorin] |  |  |  |  |  |  | 1.2 | 1.26 | 0.011 | 0.0126
5 |  | CC(=O)OC(C[C@@]1(C)[C@H](C)CCC(=O)[C@@H]1C)/C(C)=C/Cc1c(O)c(Cl)c(C)c(C=O)c1O (stereo partly drawn) [38965-84-3, Chloronectrin] | 104 | 97 | 30 | −4.5 | 68 |  |  |  |  | 
6 | 10 | CC(C)=CCC/C(C)=C/Cc1c(O)cc(CCc2ccccc2)c(C(=O)O)c1O [73436-04-1, 4-O-Demethylamorfrutin B] | 82 | 77 |  |  | 68 | −5.0 |  |  |  | 
7 | 3.2 | COc1cc(CCc2ccccc2)c(C(=O)O)c(O)c1CC=C(C)C [80489-90-3, Amorfrutin] | 85 | 122 | 47 | −4.3 | 80 | −5.5 |  |  |  | 
8 | 6.7 | CC(/C=C/[C@@]1(C)[C@H](C)CCC(=O)[C@@H]1C)=C\Cc1c(O)cc(C)c(C=O)c1O [165187-16-6, Cylindrol B] | 100 | 61 | 31 | −4.5 | 67 | −5.2 |  |  |  | 
9 | 0.027 | Ilicicolin F [22738-98-3] | 96 | 142 | 7 | −5.2 | 119 | −7.6 |  |  |  | 

Row | Compound | EC50 [3, 6] [µM] | Primary screen % [1] [%] | Reconfirmation % [1] [%] | IC50 [2, 4] [µM] | Cardiomyocytes Toxicity log IC50 [2, 5] | Orthogonal assay % (CCF-STTG1) [%] | Astrocytes Lactate release logEC50 [3, 7] | IC50 ([2]; Homo sapiens, iPSC, ATP content after 24 hours compound treatment, read-out: Cardiomyocytes Toxicity IC50) [µM] | IC50 ([2]; Homo sapiens, iPSC, log of IC50 in M, given negative, ATP content after 24 hours, read-out: Cardiomyocytes Toxicity log IC50 (converted)) [µM] | EC50 ([3]; Homo sapiens, iPSC, lactate secretion after 2 hours compound treatment, read-out: Astrocytes Lactate release EC50) [µM] | EC50 ([3]; Homo sapiens, iPSC, log of EC50 in M, given negative, 2 hours compound treatment, read-out: Astrocytes Lactate release logEC50 (converted)) [µM]
10 | Lasalocid [25999-31-9] | 4.4 | 88 | 73 | 11 | −4.9 | 53 | −5.4 |  |  |  | 
